Source: patent publication US20130224126A1, “Oral Care Product and Methods of Use and Manufacture Thereof” (Colgate-Palmolive Company, priority 2010, published 2013)

System: bacteria/yeast and mold
Test: Antimicrobial Preservation Effectiveness Test (micro robustness), double challenge test
Assay type: cell-based
Settings: in the mouthwash formulations, separately or in combination
Description: The Antimicrobial Preservation Effectiveness Test is used to determine the antimicrobial preservation effectiveness of water-based product formulations by means of a double challenge test. Products are developed to withstand microbial challenges introduced by normal consumer use. The test is run on an aged sample (13 weeks, 40° C.). The test uses two pools of microorganisms: bacteria/yeast and mold. The product is challenged at a 1% level at day 0 and at day 7. Reduction of the inoculum is monitored over a 28 day period. The following are the acceptance criteria for mouth wash formulas. • Bacteria and yeast must show a 99.9% reduction (3 logs) of the bacterial inoculum as determined by plate count on day 7 following each inoculation. No increase after day 7 of the second inoculation and for the remainder of the test within normal variation of the data. • Mold must show a 90.0% reduction (1 log) of the mold inoculum as determined by the plate count on day 14 following the second inoculation (day 21). No increase from day 14 to day 21 of the second inoculation of the test within normal variation of the data.

| Compound | microbial control |
| --- | --- |
| OCc1ccccc1 [Benzyl alcohol, benzyl alcohol] | acceptable |
| Cn1sccc1=O [MIT, methylisothiazolinone] | acceptable |
